The values below come from patent US7439027B2, “Method for modulating process mediated by farnesoid activated receptors” (The Salk Institute for Biological Studies, priority 1995, dated 2008).

Experiment [1] concerns the target T1, FAR-RXRα complex (rat FAR and human RXRα) (Rattus norvegicus, UniProt Q62735, D356M/DEL339-355/E357R/INS337LPDTQTCWKKEFERAAS).
T1 construct: expressed in transfected cells; host or cells: CV-1 cells, CMV-driven expression vectors
T1 sequence (Q62735 1-469): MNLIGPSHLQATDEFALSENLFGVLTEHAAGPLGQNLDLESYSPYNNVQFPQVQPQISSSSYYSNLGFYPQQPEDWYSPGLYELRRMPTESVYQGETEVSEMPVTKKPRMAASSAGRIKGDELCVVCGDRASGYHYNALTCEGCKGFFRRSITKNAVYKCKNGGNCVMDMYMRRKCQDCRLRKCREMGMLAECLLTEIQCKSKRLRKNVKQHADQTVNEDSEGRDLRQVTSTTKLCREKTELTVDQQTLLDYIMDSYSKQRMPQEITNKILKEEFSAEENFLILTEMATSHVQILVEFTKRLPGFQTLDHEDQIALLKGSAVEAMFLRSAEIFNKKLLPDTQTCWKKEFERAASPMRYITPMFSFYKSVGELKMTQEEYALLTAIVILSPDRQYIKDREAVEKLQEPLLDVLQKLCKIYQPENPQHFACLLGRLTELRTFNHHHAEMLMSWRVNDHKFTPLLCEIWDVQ
T1 sequence (P19793 1-462 partner): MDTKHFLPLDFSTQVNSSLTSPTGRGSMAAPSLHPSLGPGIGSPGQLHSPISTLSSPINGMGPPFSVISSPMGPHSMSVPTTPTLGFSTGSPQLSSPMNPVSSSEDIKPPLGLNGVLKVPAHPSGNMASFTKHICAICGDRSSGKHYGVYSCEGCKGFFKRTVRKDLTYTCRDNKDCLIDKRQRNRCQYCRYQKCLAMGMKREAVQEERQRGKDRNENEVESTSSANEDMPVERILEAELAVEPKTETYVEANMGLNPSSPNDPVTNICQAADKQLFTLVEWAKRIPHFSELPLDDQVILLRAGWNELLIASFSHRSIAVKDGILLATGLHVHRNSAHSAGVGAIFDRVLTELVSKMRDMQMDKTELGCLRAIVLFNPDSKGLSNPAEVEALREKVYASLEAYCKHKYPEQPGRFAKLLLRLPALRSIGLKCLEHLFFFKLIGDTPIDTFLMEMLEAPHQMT
Description: hsp27-EcRE×5 MTV-luciferase reporter cotransfection in CV-1 cells expressing FAR and RXRα. It counts as cell-based. As to the method:
Thus, CV-1 cells were grown in DMEM supplemented with 10% AG1-X8 resin-charcoal stripped calf bovine serum, 50 U/ml penicillin G and 50 μg/ml streptomycin sulfate (DMEM-CBS) at 37° C. in 5% CO2. One day prior to transfection, cells were plated to 50-80% confluence using phenol-red free DMEM with 10% resin charcoal stripped fetal bovine serum (DMEM-FBS). Cells were transfected (with reporter construct (300 ng/10^5 cells), cytomegalovirus driven receptor (100 ng/10^5 cells) and β-galactosidase expression vectors (500 ng/10^5 cells) as indicated in FIG. 4) by lipofection using N-{2-(2,3)-dioleoyloxy)propyl-N,N,N-trimethyl ammonium methyl sulfate} according to the manufacturer's instructions (DOTAP, Boehringer Mannheim). […] Cells were harvested and assayed for luciferase and β-galactosidase activity. […] Data points were normalized for differences in transfection efficiency using β-galactosidase, and plotted as relative activity where the untreated reporter is defined to have an activity of 1 unit.
Based on the identification of an EcRE as a DNA target, a reporter plasmid was constructed containing 5 copies of the hsp27 response element linked to a truncated mouse mammary tumor virus promoter (Yao et al., Nature 366:476-479 (1993)). This reporter was cotransfected into CV-1 cells alone, or with expression vectors for FAR and/or RXRα. Cotransfected cells were treated with a variety of potential ligands and monitored for changes in luciferase activity.
Thus, with reference to FIG. 5A, CV-1 cells were transiently transfected with hsp27-EcRE×5 MTV-luciferase alone (−) or with expression vectors for rat FAR and/or human RXRα. Reporter activity was assayed after treating cells with or without 50 μM JH III.
CV-1 cells were transiently transfected as described above with reference to FIG. 5A, but treated with or without 50 μM JH III, 100 nM LG69 and JH III+LG69.
Thus, CV-1 cells were transiently transfected with expression vectors for rat FR and human RXRα, as described above in Example 3. […] Data is plotted in FIG. 6A as fold activation relative to untreated cells.

The next experiment relates to HMG-CoA reductase. Conditions: by a mevalonate-derived non-sterol; cited from earlier work.

Consider `CC(C)=CCC/C(C)=C/CO` [geraniol], for which, in experiment [1] (50 μM, FIG. 6A), the “activation of FAR-RXRα (in words)” value is “little or no activation”.

Take `CC(C)=CCC/C(C)=C/CC/C(C)=C/CC/C(C)=C/CO` [geranylgeraniol]: the “activation of FAR-RXRα (in words)” value in experiment [1] (50 μM, FIG. 6A) is listed as “weaker activity”.

For the compound `CC(C)=CCC[C@@H](C)[C@H]1CC[C@@]2(C)C3=C(CC[C@]12C)[C@@]1(C)CC[C@H](O)C(C)(C)[C@@H]1CC3` [lanosterol], the “activation of FAR-RXRα (in words)” value in experiment [1] (50 μM, FIG. 6A) is “little or no activation”.

Regarding `CC(O)(CCO)CC(=O)O` (stereo not drawn) [mevalonate], the “concentration added to cells at which down-regulation of HMG-CoA reductase activity occurs” value in the experiment with HMG-CoA reductase was greater than 100 µM. For the same compound, the “activation of FAR-RXRα (in words)” value in experiment [1] (50 μM, FIG. 6A) is “little or no activation”; in experiment [1] (200 μM, cells cotransfected with a mevalonate transporter protein), “weak activity”.

For the compound `CC(=O)[C@H]1CC[C@H]2[C@@H]3CC=C4C[C@@H](O)CC[C@]4(C)[C@H]3CC[C@]12C` [pregnenolone], the “activation of FAR-RXRα (in words)” value in experiment [1] (50 μM, FIG. 6A) was “little or no activation”.

Turning to `CC(C)=CCC/C(C)=C/CC/C(C)=C/CC/C=C(\C)CC/C=C(\C)CCC1OC1(C)C` (stereo not drawn) [squalene epoxide], the “activation of FAR-RXRα (in words)” value in experiment [1] (50 μM, FIG. 6A) is reported as “little or no activation”.

On to `CC(C)=CCC/C(C)=C/CC/C(C)=C/CC/C=C(\C)CC/C=C(\C)CCC=C(C)C` [squalene], for which the “activation of FAR-RXRα (in words)” value in experiment [1] (50 μM, FIG. 6A) is reported as “little or no activation”.
